# A melting point compilation (Tetko et al.; mined from patent text by program, amines drawn as free bases though some values may be those of a salt)
row,melting point [°C],Structure (SMILES)
1,225 to 230,CS(=O)(=O)Nc1ccc(NC(=O)c2c[nH]c(=S)n2C2CCc3c(F)cc(F)cc3C2)cc1 (configuration not stated)
2,136 to 138,COc1cccc(-c2nc3n(n2)Cc2ccc(OC)cc2-3)c1
3,228 to 230,COc1ccc(-c2c(Cl)c(CN3CCCC3=O)nc3sc4cnccc4c23)cc1OC
4,99 to 101,CCC(C)(O)CNc1c(N)c(Cl)nc2ccccc12 (configuration not stated)
5,122 to 124,Cc1cc(C2(C(F)(F)F)CC(c3ccc(F)cc3)=NO2)ccc1NC(=O)c1cccc(N)c1C(=O)NC(C)C (configuration not stated)
6,> 250,Cn1ncc(C(=O)N2CCC2)c1C(=O)Nc1ccn2nc(Br)nc2c1
7,180 to 182,CN(C)[C@@H]1c2ccccc2N(C(=O)c2ccc(NC(=O)c3ccccc3Cl)cc2)CC[C@H]1O (relative stereo)
8,70,CC(C)CCCCCCCCCCCCc1ccc(O)cc1O
9,208 to 210,CNC(=O)c1c(C)nc(C)n1Cc1ccc2oc(-c3ccccc3NS(=O)(=O)C(F)(F)F)c(Br)c2c1
10,> 260,Cc1cc2nc3c4cc(O)ccc4n(CCN(C)C)c3nc2cc1C
11,> 360,N#Cc1c(N)nc2ccc([N+](=O)[O-])cc2c1O
12,135 to 137,N=C(NCc1cccs1)NN=Cc1c(Cl)cccc1Cl
13,199 to 200,CCCNC(=O)C(C)Cc1ccc2cccc(Cc3ccc(C(=O)O)cc3OC)c2c1 (configuration not stated)
14,108,CCCC(=NOCC)C1=C(O)CC(c2c(C)c(C)c(C)c3c2OCC3)CC1=O (configuration not stated)
15,251,FC(F)(F)COc1cc(-c2cc(C(F)(F)F)n3ncc(-c4ccncc4)c3n2)ccc1C(F)(F)F
16,218,Cc1ccc2c(c1)c(O)c(C(=O)NC1CCCCC1)c(=O)n2C
17,115 to 117,CCc1cc(SCCc2cccc3cn(-c4ccc(C(F)(F)F)cc4)nc23)ccc1OCC(=O)O
18,140 to 141,CS(=O)(=O)c1ccc(C2=C(c3ccc4c(c3)OCO4)CCC2)cc1
19,285 to 286,O=C1CCN(c2ccc(C(=O)O)cc2)CCN1
20,203,O=C1c2cccc3cc4ccccc4c(c23)C(=O)N1CCNCCNCCN1C(=O)c2cccc3cc4ccccc4c(c23)C1=O
21,119 to 120,CCOC(=O)C1=C(C(F)(F)F)Nc2n[nH]cc2C1c1ccccc1F (configuration not stated)
22,94.5 to 95.5,CC[C@H](C)[C@H](NC(=O)[C@H](Cc1ccccc1)NC(=O)OCc1ccccc1)C(=O)OC
23,222 to 223,CCC(C)(C)Nc1c(NCc2cccc(Cl)c2Cl)c(=O)c1=O
24,218 to 219,Cc1ccc(C(=O)Nc2c[nH]nc2C(=O)NCC(F)(F)F)cn1

row,melting point [°C],Structure (SMILES)
1,130 to 133,CCn1c2ccccc2c2cc3cccc(C=O)c3cc21
2,216,CC(C)(C)c1cccc(S(=O)(=O)n2c(Cc3ccc(C(=O)O)cc3)cc3c(Cl)c(Cl)ccc32)c1
3,100,COc1cc2c(cc1OC)CN(CCCOc1ccc(N)cc1)CC2
4,37 to 39,CCOC(=O)COc1cc(F)ccc1[N+](=O)[O-]
5,139 to 141,N#CNC(=NCCN1CCC(C(=O)c2ccc(F)cc2)CC1)N1CCCCC1
6,223 to 225,CC(C)(C)OC(=O)N1CCC(CCc2c3c(nn2C(C)(C)C)c(=O)[nH]c2ccccc23)CC1
7,231 to 232,Cc1ccc(-c2c(C(=O)Nc3nccs3)nc(-c3cccc4ccccc34)n2Cc2ccccc2)cc1
8,251 to 252,CCn1c(=O)c2[nH]c(C(C)=Cc3ccccc3)nc2n(CC)c1=O
9,275 to 278,O=c1[nH]cnc2cscc12
10,196 to 198,Cc1cnc(CO)cc1C(c1cc(F)ccc1F)S(=O)(=O)c1ccc(Cl)cc1 (configuration not stated)
11,103 to 109,C[C@@H](n1cnc2cc(N)ccc2c1=O)[C@](O)(Cn1cncn1)c1ccc(F)cc1F
12,140,CCCC(=O)Nc1n[nH]c2cc(-c3ccc(OCc4ccccc4)cc3)c(-c3ccc(OCc4ccccc4)cc3)cc12
13,144 to 145,CC(=O)NCCn1ccc2c1-c1ccc(Cl)cc1CC2
14,118 to 120,NC(=O)CNCC(=O)NCCCO
15,220,O=C(O)c1cc(=O)c2cc([N+](=O)[O-])ccc2s1
16,> 230,CN1C(=O)C(=Cc2cc(C(C)(C)C)c(O)c(C(C)(C)C)c2)SC1=S
17,150 to 151,COC(=O)c1ccccc1S(=O)(=O)NC(=O)Nc1nnc(C)c(C)n1
18,170 to 172,CC(C)COc1c(-c2ccc(S(N)(=O)=O)cc2)cnn(CC(F)(F)F)c1=O
19,174 to 176,COC(=O)c1sc2cc(O)ccc2c1C
20,172 to 173,Cc1ccccc1-c1cccc(C=NNC(=S)NN2CCCC2)n1
21,> 250,COc1ccc(C(=O)Nc2c(Cl)cncc2Cl)c2c1oc1ccc(NC(=O)NCC(=O)O)cc12
22,88 to 90,CCOC(=O)CCCCSc1nc2ccccc2[nH]1
23,101 to 102,COc1cccc(Cc2cc3cccc(-c4cccc(C(=O)NCCN5CCCC5)c4)c3o2)c1
24,90.5 to 91.5,Nc1nc2ccccc2c2c1ncn2CCCCNC(=O)c1ccc(Oc2ccccc2)cc1

row,melting point [°C],Structure (SMILES)
1,149 to 152,CCc1nc2c(C)cc(C)nc2n1Cc1ccc(-c2ccccc2)c(-c2nc(=O)o[nH]2)c1
2,126 to 127,N#CCCNC(=O)c1cccc(-c2cccn3cc(Cc4cccc(C(F)(F)F)c4)nc23)c1
3,64 to 65,Cc1cc(C)c2c(c1O)C(=O)C1CCCCC21 (configuration not stated)
4,137 to 138,FC(F)(F)c1ccc(-c2cc(Oc3ccc4cccnc4c3)ncn2)c(NCC2CCCCC2)c1
5,161 to 162,CCCCCCNc1nc(-c2ccc(F)cc2)c(-c2ccc(S(C)(=O)=O)cc2)s1
6,72,N=c1sc2cc(OC(F)(F)F)ccc2n1CCSCCCC(=O)c1ccccc1
7,83 to 85,O=C(c1ccccc1)N1CCC(CO)CC1
8,54 to 57,O=C(O)Cc1ccccc1Sc1ccc(F)c(F)c1
9,152 to 155,Oc1ccc2sc3ccccc3c2c1
10,133 to 135,Cc1cn(-c2ccc(NC(=O)c3ccc(Cl)c(C#Cc4ccc(NC(C)C)nn4)c3)cc2C(F)(F)F)cn1
11,235 to 237,Cc1noc2cc(F)c(-n3c(=O)cc(C(F)(F)F)[nH]c3=O)cc12
12,274 to 276,Cc1cnc2c(-c3nc[nH]n3)c(Cl)ccc2c1
13,128 to 130,CC(C)(C)[Si](C)(C)OC(=O)O[Si](C)(C)C(C)(C)C
14,105 to 106,C=C1CC(COc2ccc3ccc(=O)oc3c2)(c2ccccc2)OC1=O (configuration not stated)
15,225 to 226,Cc1noc(NC(=O)N2CCN(c3cncc(-c4ccc(F)cc4F)n3)CC2)c1C
16,110 to 111,CN(C(=O)c1ccc2nonc2c1)C1CCCC1
17,119 to 120,CCOC(=O)C(CC(=O)c1cccc(OC)c1)(NC(C)=O)C(=O)OCC
18,304 to 307,CN1C(=O)c2c(n3cncc3c3[nH]c4ncccc4c23)C1=O
19,92 to 94,CCOC(=O)C(=O)Cc1cc(Cl)c(Cl)cc1[N+](=O)[O-]
20,166 to 168,COC(=O)c1cccc([N+](=O)[O-])c1C(=O)O
21,136 to 138,Nc1nc(C#Cc2ccccc2)cc(-c2ccccc2)n1
22,73 to 76,CC(C)(C)c1cccc2c1OC(CNC(=O)OCc1ccccc1)C2 (configuration not stated)
23,123 to 124,Cc1cc2c(cc1N)OC(=O)C2C (configuration not stated)
24,245 to 256,COc1cc2c(cc1Br)CC(=O)NN=C2c1ccc([N+](=O)[O-])cc1

row,melting point [°C],Structure (SMILES)
1,91 to 94,O=C(O)CCC(=O)c1ccc(SCCCBr)cc1
2,179 to 180,O=C(NO)c1ccc(CNC(=O)c2[nH]c(-c3ccccc3)cc2-c2ccc([N+](=O)[O-])cc2)cc1
3,125 to 128,COc1ccc2c(c1)CCC1CCNC(=O)C(CCN3CCCCC3)=C21 (configuration not stated)
4,218 to 220,COc1cc(CC(=O)O)ccc1NC(=O)Nc1ccccc1C(F)(F)F
5,167 to 168,COc1cc(COc2nn(-c3ccccc3)cc2C#N)ccc1OCc1nc(-c2ccco2)oc1C
6,158 to 160,Cn1cc(CC(SSC(Cc2cn(C)c3ccccc23)C(=O)O)C(=O)O)c2ccccc21 (configuration not stated)
7,139 to 140,O=C(NCC1CC(=O)N(Cc2ccccc2)C1)Nc1ccc(Cl)cc1 (configuration not stated)
8,219 to 220,CC(=O)c1cc(N=c2cc(C)n(C)c(N)n2)cc(C(C)=O)c1
9,178 to 180,CN1CCN(Cc2c(CO)c(Cl)nc3cc4c(cc23)OCCO4)CC1
10,169 to 170,COC(C(=O)O)c1ccc(OCc2ccccn2)cc1 (configuration not stated)
11,214,Cn1cc(C(=O)c2cccc(Cl)c2)cc1C(=O)O
12,175 to 176,CCCNC(=O)c1nc(C)ccc1C(=O)Nc1c(C#N)ccc(Cl)c1C
13,32.5 to 32.8,CCCCCCCCc1ccc(C=Nc2ccc(C#N)cc2)cc1
14,173 to 174,CCCCn1c(=S)c2c(ncn2CC(C)=O)n(CC)c1=O
15,148,CCc1nnc(-c2ccc(N(C)C)cc2)n1-c1ccc(OC)cc1
16,121 to 123,O=C(C=C1NC(c2ccc(F)cc2)=NC1(C(F)(F)F)C(F)(F)F)c1ccc(F)cc1
17,188,OC(CN1CCN(Cc2ccc(F)cc2)CC1)Cn1c2ccccc2c2cc(-c3ccccc3)ccc21 (configuration not stated)
18,122 to 125,NS(=O)(=O)c1ccc(-n2nc(CCNC(=O)Nc3cccc(C(F)(F)F)c3)cc2-c2ccccc2)cc1
19,110 to 126,CCOCc1cnc2c([N+](=O)[O-])cccc2c1Cl
20,149 to 151,COC(=O)c1ncc(Cl)nc1NCc1ccc(OC)c(Cl)c1
21,158 to 159,CC(C)(C)c1ccc2c(c1)C(CO)c1cc(C(C)(C)C)ccc1S2
22,143,CCCNCC(=O)Nc1ccc2c(c1)C(=O)c1cc(NC(=O)CNCCC)ccc1C2=O
23,146 to 147,CC(C)c1nn(-c2nc3ccccc3s2)c(-c2ccc(F)cc2)c1Br

row,Structure (SMILES),melting point [°C]
1,CCCn1cc(C(=O)Nc2nccs2)c2ccc(Cl)cc21,175 to 176
2,O=c1oc2ccccc2c(O)c1C1CC(c2ccc(OCc3ccc(-c4ccc(-c5ccccc5)cc4)cc3)cc2)Cc2ccccc21 (configuration not stated),245 to 248
